The values that follow come from US20230107642A1 (Erasca, Inc., priority 2020, published 2023).

This test concerns the target T1, Cys12 of the KRAS 4B G12C protein (Homo sapiens, UniProt P01116, G12C).
T1 construct: This protein contained 188 amino acids in total, including an N-terminal 6-Histidine tag; made in house; host or cells: E. coli BL21
Kind of test: In vitro covalent adduct formation (CAF) assay, LC-MS intact mass. In kind it is binding. Particulars: 10 uM compound, 60 min incubation. In short, it runs like this:
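Percent covalent modification from intact-mass LC-MS, by relative free versus adducted protein (adducts within 1 Da of expected mass). Reaction: 10 μM compound with 5 μM E. coli-expressed, GDP-exchanged KRAS 4B G12C in TBS pH 7.4, 4% DMSO, 1 h at 22° C.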
Turning to `C=CC(=O)N1[C@H](C)CN(c2nc(=O)n3c4c(c(-c5ccc(F)cc5)c(C(F)(F)F)cc24)SC[C@H](N2CCOCC2)C3)C[C@@H]1C` [Example 1112, (R)-8-((3S,5R)-4-acryloyl-3,5-dimethylpiperazin-1-yl)-11-(4-fluorophenyl)-3-morpholino-10-(trifluoromethyl)-3,4-dihydro-2H,6H-[1,4]thiazepino [2,3,4-ij]quinazolin-6-one], the “% CAF 10 uM @ 60 min” value turned out to be 92.4%. As for `C=CC(=O)N1[C@H](C)CN(c2nc(=O)n3c4c(c(-c5ccc(F)cc5F)c(Cl)cc24)SC[C@@H]3COC)C[C@@H]1C` [Example 1113, (3S)-7-((3S,5R)-4-acryloyl-3,5-dimethylpiperazin-1-yl)-9-chloro-10-(2,4-difluorophenyl)-3-(methoxymethyl)-2,3-dihydro-5H-[1,4]thiazino[2,3,4-ij]quinazolin-5-one], the “% CAF 10 uM @ 60 min” value was 96.8%.

`C=CC(=O)N1CCN(c2nc(=O)n3c4c(c(-c5ccc(F)cc5)c(C(F)(F)F)cc24)SCC2(COC2)C3)CC1` [Example 1116, 8′-(4-acryloylpiperazin-1-yl)-11′-(4-fluorophenyl)-10′-(trifluoromethyl)-2′H,4′H,6′H-spiro[oxetane-3,3′-[1,4]thiazepino [2,3,4-ij]quinazolin]-6′-one]: the “% CAF 10 uM @ 60 min” value worked out at 98.4%. The figure for `C=CC(=O)N1[C@H](C)CN(c2nc(=O)n3c4c(c(-c5ccc(F)cc5)c(C(F)(F)F)cc24)SCC2(COC2)C3)C[C@@H]1C` [Example 1117, 8′-((3S,5R)-4-acryloyl-3,5-dimethylpiperazin-1-yl)-11′-(4-fluorophenyl)-10′-(trifluoromethyl)-2′H,4′H,6′H-spiro[oxetane-3,3′-[1,4]thiazepino [2,3,4-ij]quinazolin]-6′-one] is 96.9%.

On to `C=CC(=O)N1[C@H](C)CN(c2nc(=O)n3c4c(c(-c5ccc(F)cc5)c(C(F)(F)F)cc24)SC[C@H](N2CCCC2)C3)C[C@@H]1C` [Example 1118, (R)-8-((3S,5R)-4-acryloyl-3,5-dimethylpiperazin-1-yl)-11-(4-fluorophenyl)-3-(pyrrolidin-1-yl)-10-(trifluoromethyl)-3,4-dihydro-2H,6H-[1,4]thiazepino [2,3,4-ij]quinazolin-6-one], for which the “% CAF 10 uM @ 60 min” value is recorded as 95.7%. `C=CC(=O)N1C[C@H](C)N(c2nc(=O)n3c4c(c(-c5cc(Cl)c(F)cc5F)c(C(F)(F)F)cc24)SCC2(COC2)C3)C[C@H]1C` [Example 1122, 8′-((2S,5R)-4-acryloyl-2,5-dimethylpiperazin-1-yl)-11′-(5-chloro-2,4-difluorophenyl)-10′-(trifluoromethyl)-2′H,4′H,6′H-spiro[oxetane-3,3′-[1,4]thiazepino [2,3,4-ij]quinazolin]-6′-one]: the “% CAF 10 uM @ 60 min” value came out at 74.3%. The figure for `C=CC(=O)N1CCN(c2nc(=O)n3c4c(c(-c5ccc(F)cc5F)c(C(F)(F)F)cc24)SCC2(COC2)C3)CC1` [Example 1123, 8′-(4-acryloylpiperazin-1-yl)-11′-(2,4-difluorophenyl)-10′-(trifluoromethyl)-2′H,4′H,6′H-spiro[oxetane-3,3′-[1,4]thiazepino [2,3,4-ij]quinazolin]-6′-one] is 95.2%; for `C=CC(=O)N1[C@H](C)CN(c2nc(=O)n3c4c(c(-c5cc(Cl)c(F)cc5F)c(C(F)(F)F)cc24)SC[C@H](N2CCCC2)C3)C[C@@H]1C` [Example 1129, (3R)-8-((3S,5R)-4-acryloyl-3,5-dimethylpiperazin-1-yl)-11-(5-chloro-2,4-difluorophenyl)-3-(pyrrolidin-1-yl)-10-(trifluoromethyl)-3,4-dihydro-2H,6H-[1,4]thiazepino [2,3,4-ij]quinazolin-6-one] it is 69%.
